Assay results published in the supplement of paper PMC11061612.

Assays:
[1] = compound: C=CCn1c(=O)c2cnc(Nc3ccc(N4CCN(C)CC4)cc3)nc2n1-c1cccc(C(C)(C)O)n1 [AZD1775]; conditions: max 3 µM
In short: (§1)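 Viability was measured with CellTiter-Glo 2.0 luminescence after 72 hours of dosing at a final DMSO of typically 0.2%, and scaled between blank-well and DMSO-well means. Beforehand, cancer cell lines sat 24 hours at 37°C and 5% CO2 in 1536-well plates in 7.5 μl DMEM/F12 or RPMI with 10% FBS. A non-linear mixed effects model fitted two-parameter logistic curves to the dose responses. The single-agent IC50 comes from these fits.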

[2] = compound: C[C@@H]1COCCN1C2=NC(=NC(=C2)C3(CC3)[S@](=N)(=O)C)C4=C5C=CNC5=NC=C4 [AZD6738]; conditions: max 10 µM
In short: as §1

[3] = compound: Cc1nc(-c2cn3c(n2)-c2ccc(-c4cnn(C(C)(C)C(N)=O)c4)cc2OCC3)n(C(C)C)n1 [Taselisib]; conditions: max 10 µM
In short: as §1

[4] = compound: Nc1ccn([C@@H]2O[C@H](CO)[C@@H](O)C2(F)F)c(=O)n1 [Gemcitabine]; conditions: max 0.3 µM
In short: as §1

[5] = compound: CC(=O)O[C@H]1C(=O)[C@@]2(C)[C@H]([C@H](OC(=O)c3ccccc3)[C@]3(O)C[C@H](OC(=O)[C@H](O)[C@@H](NC(=O)c4ccccc4)c4ccccc4)C(C)=C1C3(C)C)[C@]1(OC(C)=O)CO[C@@H]1C[C@@H]2O [Paclitaxel]; conditions: max 3 µM
In short: as §1

[6] = compound: Cc1cc2ncnn2cc1Nc1ncc2c(n1)n(C1CCOCC1)c(=O)n2C [AZD7648]; conditions: max 10 µM
In short: as §1

[7] = compound: CN(CC[C@H](CSC1=CC=CC=C1)NC2=C(C=C(C=C2)S(=O)(=O)NC(=O)C3=CC=C(C=C3)N4CCC(CC4)[C@H](C5=CC=CC=C5C6=CC=C(C=C6)Cl)O)S(=O)(=O)C(F)(F)F)CCO [AZD4320]; conditions: max 1 µM
In short: as §1

[8] = compound: CC1(C)CCC(CN2CCN(c3ccc(C(=O)NS(=O)(=O)c4ccc(NCC5CCOCC5)c([N+](=O)[O-])c4)c(Oc4cnc5[nH]ccc5c4)c3)CC2)=C(c2ccc(Cl)cc2)C1 [Venetoclax]; conditions: max 1 µM
In short: as §1

[9] = compound: C1CC(C1)(C(=O)[O-])C(=O)[O-].N.N.[Pt+2] [Carboplatin]; conditions: max 10 µM
In short: as §1

[10] = compound: N#Cc1cnc(Nc2cc(NC[C@H]3CNCCO3)c(C(F)(F)F)cn2)cn1 [SRA737]; conditions: max 10 µM
In short: as §1

[11] = compound: Cn1cnc2c(F)c(Nc3ccc(Br)cc3Cl)c(C(=O)NOCCO)cc21 [Selumetinib]; conditions: max 10 µM
In short: as §1

[12] = compound: Cc1c2c(nn1C)CSCc1cc(n(C)n1)CSc1cc(c3ccccc3c1)OCCCc1c(C(=O)O)n(C)c3c-2c(Cl)ccc13 [AZD5991]; conditions: max 1 µM
In short: as §1

[13] = compound: CN(C)CCCOc1ccc(-c2ccc3ncc4c(c3c2)n(C2CCOCC2)c(=O)n4C)cn1 [AZD0156]; conditions: max 3 µM
In short: as §1

[14] = compound: CC(=O)c1c(C)c2cnc(Nc3ccc(N4CCNCC4)cn3)nc2n(C2CCCC2)c1=O [Palbociclib]; conditions: max 10 µM
In short: as §1

[15] = compound: COc1cccc(OCCCN)c1-c1cc(Nc2cnc(C#N)cn2)n[nH]1 [Prexasertib]; conditions: max 1 µM
In short: as §1

[16] = compound: COc1cc2ncnc(Nc3ccc(F)c(Cl)c3)c2cc1OCCCN1CCOCC1 [Gefitinib]; conditions: max 10 µM
In short: as §1

[17] = compound: CC1=C(C(=CC=C1)Cl)NC(=O)C2=CN=C(S2)NC3=CC(=NC(=N3)C)N4CCN(CC4)CCO [Dasatinib]; conditions: max 2 µM
In short: as §1

[18] = compound: COc1cccc2c1C(=O)c1c(O)c3c(c(O)c1C2=O)C[C@@](O)(C(=O)CO)C[C@@H]3O[C@H]1C[C@H](N)[C@H](O)[C@H](C)O1 [Doxorubicin]; conditions: max 1 µM
In short: as §1

[19] = compound: NC1(c2ccc(-c3nc4ccn5c(=O)[nH]nc5c4cc3-c3ccccc3)cc2)CCC1 [MK-2206]; conditions: max 10 µM
In short: as §1

[20] = compound: C[C@@H](Oc1cc(-c2cnn(C3CCNCC3)c2)cnc1N)c1c(Cl)ccc(F)c1Cl [Crizotinib]; conditions: max 10 µM
In short: as §1

[21] = compound: CCc1c2c(nc3ccc(O)cc13)-c1cc3c(c(=O)n1C2)COC(=O)[C@]3(O)CC [SN-38]; conditions: max 0.3 µM
In short: as §1

[22] = compound: C[C@@H](c1ccc2nccn2c1)n1nnc2ncc(-c3cnn(C)c3)nc21 [Savolitinib]; conditions: max 1 µM
In short: as §1

[23] = compound: CS(=O)(=O)CCNCc1ccc(-c2ccc3ncnc(Nc4ccc(OCc5cccc(F)c5)c(Cl)c4)c3c2)o1 [Lapatinib]; conditions: max 10 µM
In short: as §1

[24] = compound: C[C@@H](Nc1cc(F)cc(F)c1)c1cc(C(=O)N(C)C)cc2c(=O)cc(N3CCOCC3)oc12 [AZD8186]; conditions: max 10 µM
In short: as §1

[25] = compound: CC(C)n1c(=O)n(C)c2cnc3cc(F)c(-c4ccc(OCCCN5CCCCC5)nc4)cc3c21 [AZD1390]; conditions: max 0.3 µM
In short: as §1

[26] = compound: CCN(CCO)CCCOc1ccc2c(Nc3cc(CC(=O)Nc4cccc(F)c4)[nH]n3)ncnc2c1 [AZD2811]; conditions: max 1 µM
In short: as §1

[27] = compound: O=C(Nc1ccc2[nH]nc(-c3ccncc3)c2c1)[C@@H]1CCN(CC(=O)N2CCN(c3ccc(-c4ncccn4)cc3)CC2)C1; conditions: max 5 µM
In short: as §1

[28] = compound: C1CN(CCC1(C(=O)N[C@@H](CCO)C2=CC=C(C=C2)Cl)N)C3=NC=NC4=C3C=CN4 [AZD5363]; conditions: max 10 µM
In short: as §1

[29] = compound: COc1nnc2ccc(N3CCC(c4ccc(OCCN5CCN(C)C(=O)[C@H]5C)cc4)CC3)nn12 [AZD5153]; conditions: max 1 µM
In short: as §1

[30] = compound: O=c1[nH]cc(F)c(=O)[nH]1 [5-Fluorouracil]; conditions: max 20 µM
In short: as §1

[31] = compound: COc1cc(Nc2ncc3c(n2)-c2ccc(Cl)cc2C(c2c(F)cccc2OC)=NC3)ccc1C(=O)O [Alisertib]; conditions: max 10 µM
In short: as §1

[32] = compound: COc1cc([C@@H]2c3cc4c(cc3[C@@H](O[C@@H]3O[C@@H]5CO[C@@H](C)O[C@H]5[C@H](O)[C@H]3O)[C@H]3COC(=O)[C@H]23)OCO4)cc(OC)c1O [Etoposide]; conditions: max 10 µM
In short: as §1

[33] = compound: CC1=CN2[C@@H](C1)C=NC3=CC(=C(C=C3C2=O)OC)OCCCCCOC4=C(C=C5C(=C4)N=C[C@@H]6CC(=CN6C5=O)C)OC [SG3199]; conditions: max 0.001 µM
In short: as §1

[34] = compound: O=C(c1cc(Cc2n[nH]c(=O)c3ccccc23)ccc1F)N1CCN(C(=O)C2CC2)CC1 [Olaparib]; conditions: max 10 µM
In short: as §1

[35] = compound: CC(=O)Nc1cccc(-n2c(=O)n(C3CC3)c(=O)c3c(Nc4ccc(I)cc4F)n(C)c(=O)c(C)c32)c1 [Trametinib]; conditions: max 1 µM
In short: as §1

| Cell Line | IC50, cell viability 72 h [1] | IC50, cell viability 72 h [2] | IC50, cell viability 72 h [3] | IC50, cell viability 72 h [4] | IC50, cell viability 72 h [5] | IC50, cell viability 72 h [6] | IC50, cell viability 72 h [7] | IC50, cell viability 72 h [8] | IC50, cell viability 72 h [9] | IC50, cell viability 72 h [10] | IC50, cell viability 72 h [11] | IC50, cell viability 72 h [12] | IC50, cell viability 72 h [13] | IC50, cell viability 72 h [14] | IC50, cell viability 72 h [15] | IC50, cell viability 72 h [16] | IC50, cell viability 72 h [17] | IC50, cell viability 72 h [18] | IC50, cell viability 72 h [19] | IC50, cell viability 72 h [20] | IC50, cell viability 72 h [21] | IC50, cell viability 72 h [22] | IC50, cell viability 72 h [23] | IC50, cell viability 72 h [24] | IC50, cell viability 72 h [25] | IC50, cell viability 72 h [26] | IC50, cell viability 72 h [27] | IC50, cell viability 72 h [28] | IC50, cell viability 72 h [29] | IC50, cell viability 72 h [30] | IC50, cell viability 72 h [31] | IC50, cell viability 72 h [32] | IC50, cell viability 72 h [33] | IC50, cell viability 72 h [34] | IC50, cell viability 72 h [35] |
| --- | --- | --- | --- | --- | --- | --- | --- | --- | --- | --- | --- | --- | --- | --- | --- | --- | --- | --- | --- | --- | --- | --- | --- | --- | --- | --- | --- | --- | --- | --- | --- | --- | --- | --- | --- |
| DOK (Oral Cavity Carcinoma) | 1260 nM | > 10000 nM | 253 nM | > 300 nM | 5.13 nM | > 10000 nM | > 1000 nM | > 1000 nM | > 10000 nM | > 10000 nM | 3660 nM | > 1000 nM | > 3000 nM | > 10000 nM | > 1000 nM | > 10000 nM | 165 nM | > 1000 nM | > 10000 nM | > 10000 nM | 169 nM | > 1000 nM | 5760 nM | > 10000 nM | > 300 nM | > 1000 nM | 633 nM | 9610 nM | 652 nM | > 20000 nM | 4510 nM | > 10000 nM | > 1 nM | > 10000 nM | 328 nM |
| EW-22 (Ewing's Sarcoma) | 694 nM | 1400 nM | 936 nM | 6.06 nM | 19.2 nM | > 10000 nM | 178 nM | 720 nM | > 10000 nM | 3010 nM | > 10000 nM | > 1000 nM | > 3000 nM | > 10000 nM | 7.62 nM | > 10000 nM | > 2000 nM | 64.8 nM | > 10000 nM | 3930 nM | 1.31 nM | > 1000 nM | > 10000 nM | > 10000 nM | > 300 nM | 78.8 nM | > 5000 nM | > 10000 nM | 982 nM | > 20000 nM | 563 nM | 1150 nM | > 1 nM | 1730 nM | > 1000 nM |
| FU-OV-1 (Ovarian Carcinoma) | > 3000 nM | > 10000 nM | 1090 nM | > 300 nM | > 3000 nM | > 10000 nM | > 1000 nM | > 1000 nM | > 10000 nM | > 10000 nM | > 10000 nM | > 1000 nM | > 3000 nM | > 10000 nM | 694 nM | > 10000 nM | 1480 nM | – | > 10000 nM | > 10000 nM | > 300 nM | > 1000 nM | > 10000 nM | > 10000 nM | > 300 nM | > 1000 nM | 3800 nM | > 10000 nM | 511 nM | > 20000 nM | > 10000 nM | > 10000 nM | – | > 10000 nM | – |
